Values of other authors, collected in patent publication US20080085243A1, “MOLECULAR MARKERS FOR D[…] RESPONSIVENESS” (SIGMA-ALDRICH COMPANY, priority 2006, published 2008).

System: late stage non-small cell lung cancer (NSCLC)

## CC(=O)O[C@H]1C(=O)[C@@]2(C)[C@H]([C@H](OC(=O)c3ccccc3)[C@]3(O)C[C@H](OC(=O)[C@H](O)[C@@H](NC(=O)c4ccccc4)c4ccccc4)C(C)=C1C3(C)C)[C@]1(OC(C)=O)CO[C@@H]1C[C@@H]2O [paclitaxel]
  patients who respond therapeutically: about 20%
